Assay type in all cases: cell-based
In assay [1] the test system is H9 cell line (human ES cell). Put plainly: Endodermal cell induction from pluripotent cells with or without ROCK activity inhibitory compound (Example 8). On the procedure: On a 24-well dish (growth area: 1.9 cm^2/well, BD Falcon [trademark]), a H9 cell line (obtained from WiCell), which is a human ES cell, was seeded in a dispersed state at a cell density of 1×10^5 cells/well and cultured for 24 hours. The culture conditions were set as follows: 37° C. and 5% CO2. As a culture solution, mTeSR-1 (STEMCELL) containing 10 μmol/l Y27632 (ROCK activity inhibitory compound, Wako) and 100 ng/ml activin A (R&D Systems) was used. To the mTeSR-1A, a penicillin-streptomycin solution (Wako) had been added beforehand so that the mTeSR-1 contained 100 U/ml penicillin and 100 U/ml streptomycin. After the culture, the culture solution used on culture day 1 was removed, and a culture solution with the same composition was further added to each well. The cells were further cultured for one day under the above-described culture conditions. The culture solution used on culture day 2 was removed, and mTeSR-1 containing 10 μmol/l Y27632, 100 ng/ml activin A, 10 ng/ml BMP-4 (R&D Systems), 10 μmol/l LY294002 (PI3K activity inhibitory compound, CAYMAN CHEMICAL COMPANY), and 3 μmol/l CHIR99021 (GSK-3β activity inhibitory compound, STEMGENT) was added. Then, the cells were cultured for 24 hours under the above-described culture conditions. […]

Assay [2] concerns H9 cell line (human ES cell). The assay is described as follows: CXCR4 expression in induced endodermal cells by flow cytometry. The following applies: dispersed or cluster-forming H9 cells, 10 μmol/l Y27632, under any of these conditions. The procedure: On a 24-well dish (growth area: 1.9 cm^2/well, BD Falcon [trademark]), a H9 cell line (obtained from WiCell), which is a human ES cell, was seeded in a dispersed state at a cell density of 1×10^5 cells/well and cultured for 24 hours. The culture conditions were set as follows: 37° C. and 5% CO2. As a culture solution, mTeSR-1 (STEMCELL) containing 10 μmol/l Y27632 (ROCK activity inhibitory compound, Wako) and 100 ng/ml activin A (R&D Systems) was used. To the mTeSR-1A, a penicillin-streptomycin solution (Wako) had been added beforehand so that the mTeSR-1 contained 100 U/ml penicillin and 100 U/ml streptomycin. […] CXCR4 expression in the stained cells was measured using a flow cytometer (BD FACSCanto [trademark] II, BD Biosciences). CXCR4 expression was also measured in the same manner, except that, from culture day 1 to culture day 4, TeSR-E8 or CDM-PVA was used instead of the mTeSR-1. Further, CXCR4 expression was measured in the same manner, except that, instead of the H9 cell line in the dispersed state, the H9 cell line forming cell clusters was seeded on culture day 1. As a control, CXCR4 expression was measured in the same manner, except that an APC-labeled control antibody (clone name: G155-178, BD Pharmigen) was used instead of the anti-human CXCR4 antibody. […] CXCR4 expression in the thus-obtained endodermal cells was measured in the same manner as in (2) in Example 1. […]

In assay [3] the test system is H9 cell line (human ES cell). The assay is described as follows: Number of endodermal cells produced after induction. The following applies: Example 2; seeding 5×10^4 to 2×10^5 cells/well; dispersed or clusters; 10 μmol/l Y27632; under any of these conditions. On the procedure:
Differentiation into endodermal cells was induced in the same manner as in Example 1, except that the H9 cell line was seeded at a cell density of 5×10^4 cells/well, 1×10^5 cells/well, or 2×10^5 cells/well. Also, differentiation into endodermal cells was induced in the same manner, except that, instead of the H9 cell line in the dispersed state, a H9 cell line forming cell clusters was seeded. Then, the endodermal cells obtained after the induction were collected. The endodermal cells obtained in (1) above were counted.

In assay [1] (endodermal cell induction examined on culture day 5, 10 μmol/l Y27632 on culture days 1-4), `C[C@@H](N)[C@H]1CC[C@H](C(=O)Nc2ccncc2)CC1` [Y27632] displayed a probability of induction of 100%. Also, the “Number of times endodermal cell induction was performed” value in assay [1] (successful inductions / total inductions, examined on culture day 5, 10 μmol/l Y27632 on culture days 1-4 with activin A, BMP-4, LY294002, CHIR99021) was 20/20. The “proportion of the cells positive to the endoderm cell marker CXCR4” value is on record as at least 80.5% in assay [2] (Example 1, after culture day 5, mTeSR-1, TeSR-E8 or CDM-PVA) and at least 83.7% in assay [2] (Example 2, seeding 5×10^4, 1×10^5 or 2×10^5 cells/well). Moreover, in assay [3], the “number of the endodermal cells obtained after the induction relative to the number of cells of the H9 cell line at the start of the induction” value is listed as “at least six”.
